Results taken from US20250009634A1, “LIQUID COMPOSITION OF CERAMIDES AND PALMITIC ACID AMIDES” (Unifarco S.p.A., priority 2021, published 2025).

Description: The samples were made in the standard quantity of 50 g, sufficient to perform the solubilisation and stability tests. The concentration ranges of the investigated actives and the sample preparation methods were established after a critical reading of the technical data sheets of each raw material.

| Compound | individual solubilisation in the solubilising agent |
| --- | --- |
| CCCCCCCCCCCCCCCC(=O)NCCO [PMEA, palmitoylethanolamide] | possible to obtain the individual solubilisation |
| CCCCCCCCCCCCCCCC(=O)NC(C)C [isopalmide, N-isopropyl-palmitoyl amide] | possible to obtain the individual solubilisation |
